Results as given in the supplement of paper PMC6411743.

Compound: Nc1ncnc2c1ncn2[C@@H]1O[C@H](COP(=O)(O)OP(=O)(O)OP(=O)(O)O)[C@@H](O)[C@H]1O [adenosine triphosphate]
Test: pEC50 of ATP-induced change in protein thermal stability (2D-TPP)
Method: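 2D thermal proteome profiling in mechanically disrupted Jurkat crude lysate. Lysate was treated 10 min at room temperature with Na-ATP (0, 0.005, 0.05, 0.5, 2 mM), heated to 12 temperatures (42-63.9 °C) for 3 min, and soluble protein was quantified by TMT10 LC-MS/MS. pEC50 is the median over replicates of dose-response fits at the lowest temperature showing a fold change of at least 1.5 (FDR-controlled hits).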

Sequence of UniProt P14635 (P14635 whole entry): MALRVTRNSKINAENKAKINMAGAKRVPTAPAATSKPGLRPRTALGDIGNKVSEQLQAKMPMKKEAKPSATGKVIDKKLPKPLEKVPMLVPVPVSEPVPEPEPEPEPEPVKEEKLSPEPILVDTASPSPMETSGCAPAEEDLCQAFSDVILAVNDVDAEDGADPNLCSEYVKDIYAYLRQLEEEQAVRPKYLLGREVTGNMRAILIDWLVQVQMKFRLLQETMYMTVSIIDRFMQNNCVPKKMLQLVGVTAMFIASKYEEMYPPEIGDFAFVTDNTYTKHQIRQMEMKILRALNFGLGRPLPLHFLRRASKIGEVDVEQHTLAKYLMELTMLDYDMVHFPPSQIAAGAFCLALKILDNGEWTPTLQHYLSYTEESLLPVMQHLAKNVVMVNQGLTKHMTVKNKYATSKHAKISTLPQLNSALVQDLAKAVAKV
Sequence of UniProt Q99426 (Q99426 whole entry): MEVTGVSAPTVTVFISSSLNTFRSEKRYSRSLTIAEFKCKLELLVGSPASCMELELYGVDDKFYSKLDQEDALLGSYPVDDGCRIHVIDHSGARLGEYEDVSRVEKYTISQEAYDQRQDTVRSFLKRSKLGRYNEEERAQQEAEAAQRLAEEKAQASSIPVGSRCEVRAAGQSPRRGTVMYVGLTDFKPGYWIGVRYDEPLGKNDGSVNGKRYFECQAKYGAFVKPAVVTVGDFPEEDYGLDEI
Sequence of UniProt Q13885 (Q13885 whole entry): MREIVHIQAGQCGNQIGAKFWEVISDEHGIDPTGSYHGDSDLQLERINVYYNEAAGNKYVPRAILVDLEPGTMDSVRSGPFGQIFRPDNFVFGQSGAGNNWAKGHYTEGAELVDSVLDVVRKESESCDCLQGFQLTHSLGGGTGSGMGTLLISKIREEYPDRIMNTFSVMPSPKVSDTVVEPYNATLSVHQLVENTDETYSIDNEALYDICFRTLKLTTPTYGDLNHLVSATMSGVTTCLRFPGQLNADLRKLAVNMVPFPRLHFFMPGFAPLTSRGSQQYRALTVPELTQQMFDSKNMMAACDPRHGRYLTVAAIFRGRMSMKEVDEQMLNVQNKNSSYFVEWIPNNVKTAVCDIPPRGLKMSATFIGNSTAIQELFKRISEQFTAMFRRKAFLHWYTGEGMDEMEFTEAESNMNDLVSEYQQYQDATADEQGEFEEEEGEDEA
Sequence of UniProt Q9Y5K5 (Q9Y5K5 whole entry): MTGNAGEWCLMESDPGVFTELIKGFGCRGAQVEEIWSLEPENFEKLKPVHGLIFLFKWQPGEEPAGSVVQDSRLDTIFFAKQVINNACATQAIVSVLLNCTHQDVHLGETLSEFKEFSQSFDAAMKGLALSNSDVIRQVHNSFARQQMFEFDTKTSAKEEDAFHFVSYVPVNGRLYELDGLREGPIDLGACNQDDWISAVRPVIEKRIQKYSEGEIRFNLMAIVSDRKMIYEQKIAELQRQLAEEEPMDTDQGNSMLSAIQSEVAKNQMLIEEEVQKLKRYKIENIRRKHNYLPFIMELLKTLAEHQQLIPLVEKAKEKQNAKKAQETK
Sequence of UniProt P06400 (P06400 whole entry): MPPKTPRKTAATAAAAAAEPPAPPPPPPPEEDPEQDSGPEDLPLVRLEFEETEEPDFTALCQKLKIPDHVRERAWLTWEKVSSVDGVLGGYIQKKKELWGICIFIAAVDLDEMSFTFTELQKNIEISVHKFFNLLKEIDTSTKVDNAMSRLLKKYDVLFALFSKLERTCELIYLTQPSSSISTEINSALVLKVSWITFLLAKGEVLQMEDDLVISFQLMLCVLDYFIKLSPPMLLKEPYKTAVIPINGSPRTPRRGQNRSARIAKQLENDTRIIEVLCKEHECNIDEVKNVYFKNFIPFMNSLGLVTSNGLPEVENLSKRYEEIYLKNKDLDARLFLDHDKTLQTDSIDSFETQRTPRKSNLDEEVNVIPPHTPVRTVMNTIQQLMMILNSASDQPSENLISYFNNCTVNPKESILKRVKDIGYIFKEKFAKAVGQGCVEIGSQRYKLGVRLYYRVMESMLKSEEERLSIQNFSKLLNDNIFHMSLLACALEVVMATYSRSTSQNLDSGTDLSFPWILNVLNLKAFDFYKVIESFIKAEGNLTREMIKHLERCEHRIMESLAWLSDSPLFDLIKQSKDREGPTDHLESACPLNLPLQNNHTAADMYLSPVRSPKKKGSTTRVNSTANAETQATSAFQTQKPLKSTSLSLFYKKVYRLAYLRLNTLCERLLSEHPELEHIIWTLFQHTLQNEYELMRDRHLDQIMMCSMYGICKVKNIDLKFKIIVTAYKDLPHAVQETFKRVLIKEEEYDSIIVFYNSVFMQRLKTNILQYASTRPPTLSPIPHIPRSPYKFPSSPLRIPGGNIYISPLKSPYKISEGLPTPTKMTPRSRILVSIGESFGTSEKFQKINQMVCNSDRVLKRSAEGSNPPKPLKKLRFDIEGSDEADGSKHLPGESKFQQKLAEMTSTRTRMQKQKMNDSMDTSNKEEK
Sequence of UniProt Q9BW66 (Q9BW66 whole entry): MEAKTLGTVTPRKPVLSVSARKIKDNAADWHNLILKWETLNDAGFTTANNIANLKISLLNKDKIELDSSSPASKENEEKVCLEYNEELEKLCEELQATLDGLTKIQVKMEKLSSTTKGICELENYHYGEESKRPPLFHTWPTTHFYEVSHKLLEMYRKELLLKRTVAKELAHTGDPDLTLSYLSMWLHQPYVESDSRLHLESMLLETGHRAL
Sequence of UniProt P06865 (P06865 whole entry): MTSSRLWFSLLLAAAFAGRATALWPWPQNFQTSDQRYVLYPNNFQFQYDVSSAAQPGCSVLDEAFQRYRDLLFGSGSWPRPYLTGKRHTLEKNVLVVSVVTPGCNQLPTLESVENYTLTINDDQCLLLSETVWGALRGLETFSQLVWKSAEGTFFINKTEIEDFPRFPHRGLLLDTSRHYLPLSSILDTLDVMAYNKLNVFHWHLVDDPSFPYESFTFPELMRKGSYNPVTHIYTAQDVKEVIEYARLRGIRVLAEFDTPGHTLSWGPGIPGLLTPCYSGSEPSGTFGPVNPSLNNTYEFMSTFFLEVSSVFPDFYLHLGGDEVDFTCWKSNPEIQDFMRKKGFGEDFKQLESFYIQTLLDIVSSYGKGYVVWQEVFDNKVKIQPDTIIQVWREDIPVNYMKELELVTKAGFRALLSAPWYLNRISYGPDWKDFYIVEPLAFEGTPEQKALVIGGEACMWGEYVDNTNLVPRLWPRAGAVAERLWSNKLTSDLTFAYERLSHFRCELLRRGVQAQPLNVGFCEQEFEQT
Sequence of UniProt Q92918 (Q92918 whole entry, looked up): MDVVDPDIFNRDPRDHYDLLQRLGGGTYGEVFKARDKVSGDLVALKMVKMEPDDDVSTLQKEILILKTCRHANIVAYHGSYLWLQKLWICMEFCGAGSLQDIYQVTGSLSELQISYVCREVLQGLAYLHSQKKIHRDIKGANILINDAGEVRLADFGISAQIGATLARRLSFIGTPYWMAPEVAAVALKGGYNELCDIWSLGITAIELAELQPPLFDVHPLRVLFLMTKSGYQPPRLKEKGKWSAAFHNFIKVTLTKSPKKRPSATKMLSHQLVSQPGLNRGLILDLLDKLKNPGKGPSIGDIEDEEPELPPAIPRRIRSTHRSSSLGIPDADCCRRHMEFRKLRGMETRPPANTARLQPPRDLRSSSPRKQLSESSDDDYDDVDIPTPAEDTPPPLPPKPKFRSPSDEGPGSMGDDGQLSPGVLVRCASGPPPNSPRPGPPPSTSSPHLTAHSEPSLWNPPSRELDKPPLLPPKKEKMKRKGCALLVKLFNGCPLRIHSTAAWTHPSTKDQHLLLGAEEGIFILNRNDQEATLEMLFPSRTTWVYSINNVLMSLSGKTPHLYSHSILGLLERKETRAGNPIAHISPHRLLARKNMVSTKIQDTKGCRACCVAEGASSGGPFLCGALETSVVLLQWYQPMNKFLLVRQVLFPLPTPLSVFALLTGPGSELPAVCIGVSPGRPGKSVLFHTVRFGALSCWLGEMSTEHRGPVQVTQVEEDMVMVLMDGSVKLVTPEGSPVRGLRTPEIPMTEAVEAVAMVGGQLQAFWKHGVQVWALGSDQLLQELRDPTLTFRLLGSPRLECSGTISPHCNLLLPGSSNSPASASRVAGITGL
Sequence of UniProt P04066 (P04066 whole entry): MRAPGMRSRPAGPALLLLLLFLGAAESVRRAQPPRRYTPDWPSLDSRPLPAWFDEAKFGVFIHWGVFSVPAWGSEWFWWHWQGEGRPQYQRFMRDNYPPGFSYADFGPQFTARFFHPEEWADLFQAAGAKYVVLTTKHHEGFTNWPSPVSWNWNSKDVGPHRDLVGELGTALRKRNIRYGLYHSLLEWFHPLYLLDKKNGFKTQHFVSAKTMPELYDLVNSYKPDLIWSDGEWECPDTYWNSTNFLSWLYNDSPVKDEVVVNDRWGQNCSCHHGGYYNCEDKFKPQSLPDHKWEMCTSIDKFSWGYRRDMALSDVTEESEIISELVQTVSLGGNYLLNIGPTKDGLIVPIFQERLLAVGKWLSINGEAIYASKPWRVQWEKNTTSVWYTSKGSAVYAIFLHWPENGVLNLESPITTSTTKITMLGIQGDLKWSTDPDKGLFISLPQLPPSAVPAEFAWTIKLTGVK
Sequence of UniProt Q8NEF9 (Q8NEF9 whole entry): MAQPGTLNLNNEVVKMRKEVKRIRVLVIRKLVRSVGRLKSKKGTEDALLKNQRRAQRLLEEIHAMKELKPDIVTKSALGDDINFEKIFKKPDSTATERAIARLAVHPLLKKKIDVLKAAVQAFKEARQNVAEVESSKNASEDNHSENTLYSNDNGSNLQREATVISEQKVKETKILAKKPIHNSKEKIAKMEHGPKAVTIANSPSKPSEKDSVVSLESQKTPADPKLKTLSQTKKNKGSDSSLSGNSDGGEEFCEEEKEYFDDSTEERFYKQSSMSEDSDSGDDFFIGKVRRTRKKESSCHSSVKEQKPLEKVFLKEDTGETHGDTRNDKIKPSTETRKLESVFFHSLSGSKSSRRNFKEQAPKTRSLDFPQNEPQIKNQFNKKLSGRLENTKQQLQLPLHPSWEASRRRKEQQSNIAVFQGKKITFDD

Target	pEC50
FAM20B (effect direction: stabilized) (UniProt O75063)	3.12
UniProt P14618 (effect direction: destabilized)	2.87
SHPK (effect direction: stabilized) (UniProt Q9UHJ6)	2.83
PAPSS1 (effect direction: stabilized) (UniProt O43252)	3.65
PSMD6 (effect direction: stabilized) (UniProt Q15008)	4.15
UniProt P62899 (effect direction: destabilized)	3
MAP3K4 (effect direction: stabilized) (UniProt Q9Y6R4)	3.63
RPL10A (effect direction: destabilized) (UniProt P62906)	< 2.7
KLC2 (effect direction: stabilized) (UniProt Q9H0B6)	4.06
UniProt Q9BXW7 (effect direction: destabilized)	3.84
AGK (effect direction: stabilized) (UniProt Q53H12)	2.97
MED20 (effect direction: stabilized) (UniProt Q9H944)	< 2.7
PPP3CA (effect direction: destabilized) (UniProt Q08209)	3.09
HEXA (effect direction: stabilized) (UniProt P06865)	3.22
PPA2 (effect direction: destabilized) (UniProt Q9H2U2)	< 2.7
UniProt P84085 (effect direction: destabilized)	< 2.7
DRAP1 (effect direction: destabilized) (UniProt Q14919)	< 2.7
PHGDH (effect direction: stabilized) (UniProt O43175)	< 2.7
GART (effect direction: stabilized) (UniProt P22102)	4.88
UniProt Q96EK5 (effect direction: stabilized)	2.96
EFHD1 (effect direction: destabilized) (UniProt Q9BUP0)	3.18

Target	pEC50
SRPRB (effect direction: stabilized) (UniProt Q9Y5M8)	3.22
NAP1L1 (effect direction: stabilized) (UniProt P55209)	< 2.7
RB1 (effect direction: stabilized) (UniProt P06400)	3.07
IQGAP1 (effect direction: destabilized) (UniProt P46940)	3.65
TUBB3 (effect direction: stabilized) (UniProt Q13509)	3.69
FUCA1 (effect direction: destabilized) (UniProt P04066)	> 5.3
EPRS (effect direction: destabilized) (UniProt P07814)	4.04
ILKAP (effect direction: stabilized) (UniProt Q9H0C8)	< 2.7
PRPF4B (effect direction: stabilized) (UniProt Q13523)	3.18
UniProt Q96G23 (effect direction: stabilized)	3.02
UniProt P62081 (effect direction: destabilized)	3.68
SRFBP1 (effect direction: destabilized) (UniProt Q8NEF9)	2.86
RPSA (effect direction: stabilized) (UniProt P08865)	< 2.7
TTF2 (effect direction: stabilized) (UniProt Q9UNY4)	3.17
UniProt Q13885 (effect direction: stabilized)	3.12
CHORDC1 (effect direction: stabilized) (UniProt Q9UHD1)	< 2.7
EPS15L1 (effect direction: destabilized) (UniProt Q9UBC2)	2.94
UniProt Q9Y2U5 (effect direction: stabilized)	3.72
UCHL5 (effect direction: stabilized) (UniProt Q9Y5K5)	< 2.7
AFF4 (effect direction: stabilized) (UniProt Q9UHB7)	3.8
CNOT2 (effect direction: stabilized) (UniProt Q9NZN8)	2.77

Target	pEC50
SARS2 (effect direction: stabilized) (UniProt Q9NP81)	3.43
UniProt Q92918 (effect direction: stabilized)	3.83
PSMD5 (effect direction: stabilized) (UniProt Q16401)	3.99
UniProt P49841 (effect direction: stabilized)	3.37
EIF3A (effect direction: destabilized) (UniProt Q14152)	4.48
PANK2 (effect direction: stabilized) (UniProt Q9BZ23)	3.02
PLEKHF2 (effect direction: stabilized) (UniProt Q9H8W4)	3.17
DHX40 (effect direction: stabilized) (UniProt Q8IX18)	3.44
MYBBP1A (effect direction: destabilized) (UniProt Q9BQG0)	2.77
PDCL3 (effect direction: destabilized) (UniProt Q9H2J4)	4.16
CINP (effect direction: stabilized) (UniProt Q9BW66)	2.98
PRKACB (effect direction: stabilized) (UniProt P22694)	3.91
UniProt Q92888 (effect direction: stabilized)	< 2.7
UniProt P62266 (effect direction: destabilized)	3.33
ARHGAP1 (effect direction: stabilized) (UniProt Q07960)	3.14
UniProt Q00537 (effect direction: stabilized)	2.73
TRIM28 (effect direction: stabilized) (UniProt Q13263)	< 2.7
DDX19A (effect direction: stabilized) (UniProt Q9NUU7)	3.75
RRP15 (effect direction: destabilized) (UniProt Q9Y3B9)	3.51
DUSP12 (effect direction: stabilized) (UniProt Q9UNI6)	< 2.7

Results, then the target that gave them:

pEC50	Target
4.27	CCNB1 (effect direction: stabilized) (UniProt P14635)
2.98	DNMT1 (effect direction: destabilized) (UniProt P26358)
< 2.7	EDF1 (effect direction: stabilized) (UniProt O60869)
3.07	TLK2 (effect direction: stabilized) (UniProt Q86UE8)
3.04	XYLB (effect direction: stabilized) (UniProt O75191)
3.13	FAM162A (effect direction: destabilized) (UniProt Q96A26)
< 2.7	TBCB (effect direction: stabilized) (UniProt Q99426)
< 2.7	UniProt Q86U38 (effect direction: stabilized)
4.49	MRPL19 (effect direction: destabilized) (UniProt P49406)
< 2.7	GNAS (effect direction: stabilized) (UniProt P63092)
2.9	HNRNPU (effect direction: stabilized) (UniProt Q00839)
3.56	UniProt Q14562 (effect direction: stabilized)
3.93	NCAPG (effect direction: stabilized) (UniProt Q9BPX3)
4.06	UniProt Q02750 (effect direction: stabilized)
< 2.7	PGD (effect direction: stabilized) (UniProt P52209)
< 2.7	COPS5 (effect direction: stabilized) (UniProt Q92905)
3.46	RAD51C (effect direction: stabilized) (UniProt O43502)
3.21	NFATC2 (effect direction: stabilized) (UniProt Q13469)
2.82	NT5C2 (effect direction: stabilized) (UniProt P49902)
3.18	ASNS (effect direction: stabilized) (UniProt P08243)
3.06	PDCD2 (effect direction: stabilized) (UniProt Q16342)
3.75	NIPSNAP1 (effect direction: stabilized) (UniProt Q9BPW8)
3.04	TMEM33 (effect direction: stabilized) (UniProt P57088)
> 5.3	CDK9 (effect direction: stabilized) (UniProt P50750)
2.88	UBLCP1 (effect direction: destabilized) (UniProt Q8WVY7)
3.79	UniProt Q92841 (effect direction: stabilized)
3.34	SPAST (effect direction: stabilized) (UniProt Q9UBP0)
3.81	UBA5 (effect direction: stabilized) (UniProt Q9GZZ9)
2.87	CTBS (effect direction: stabilized) (UniProt Q01459)
2.77	TRIM21 (effect direction: stabilized) (UniProt P19474)
